Tests used:
MCF-10A [1] = test: Antitumor activity against human spontaneously immortalized wild type MCF-10A cells assessed as cell numbers measured after 48 hrs; type: functional, cell-based
[2] = Ratio of EC50 for antitumor activity against human spontaneously immortalized wild type MCF10A cells assessed as cell numbers measured after 48 hrs to antitumor activity against human spontaneously immortalized CDH-/- MCF10A cells assessed as cell numbers measured after 48 hrs; type: functional, MCF-10A
MCF-10A [3] = test: Antitumor activity against human spontaneously immortalized CDH-/- MCF10A cells assessed as cell numbers measured after 48 hrs; type: functional, cell-based
[4] = Homo sapiens, MCF-10A, 48 h, read-out: EC50

COc1ccc2nc(C)cc(NCc3ccc(-c4ccccc4)cc3)c2c1
EC50 (MCF-10A [1]; [4]): 2.7 µM | Ratio EC50 [2]: 1 | EC50 (MCF-10A [3]; [4]): 2.8 µM

COc1ccc2nc(C)cc(SCc3ccccc3)c2c1
EC50 (MCF-10A [1]; [4]): 37.1 µM | Ratio EC50 [2]: 1.2 | EC50 (MCF-10A [3]; [4]): 30.6 µM

COc1ccc2nc(C)cc(NCc3ccc(OC(F)F)cc3)c2c1
EC50 (MCF-10A [1]; [4]): 14.7 µM | Ratio EC50 [2]: 1.4 | EC50 (MCF-10A [3]; [4]): 10.4 µM

Cc1cc(NCc2ccc(F)cc2)c2cc(OCCCCCCO)ccc2n1
EC50 (MCF-10A [1]; [4]): 11.3 µM | Ratio EC50 [2]: 1.4 | EC50 (MCF-10A [3]; [4]): 8.1 µM

COc1ccc2nccc(NCc3ccc(F)cc3)c2c1
EC50 (MCF-10A [1]; [4]): 16.4 µM | Ratio EC50 [2]: 1.2 | EC50 (MCF-10A [3]; [4]): 13.3 µM

COc1ccc2nc(C)cc(NCc3cccc(C(F)(F)F)c3)c2c1
EC50 (MCF-10A [1]; [4]): 8 µM | Ratio EC50 [2]: 1 | EC50 (MCF-10A [3]; [4]): 7.2 µM

COc1ccc2nc(C)cc(NCc3ccc(C)cc3)c2c1
EC50 (MCF-10A [1]; [4]): 22.4 µM | Ratio EC50 [2]: 1.2 | EC50 (MCF-10A [3]; [4]): 18.8 µM

COc1ccc2nc(C)cc(NCc3c(F)cccc3F)c2c1
EC50 (MCF-10A [1]; [4]): 13.6 µM | Ratio EC50 [2]: 1.3 | EC50 (MCF-10A [3]; [4]): 13.6 µM

COc1ccc2nc(C)cc(NCc3cccc(C#N)c3)c2c1
EC50 (MCF-10A [1]; [4]): 17.4 µM | Ratio EC50 [2]: 1.3 | EC50 (MCF-10A [3]; [4]): 13.4 µM

COc1ccc2nc(C)cc(NC[C@H]3NC[C@H](O)[C@@H]3O)c2c1.O=C(O)C(F)(F)F
EC50 (MCF-10A [1]; mcf-10a): Nd(Toxic) | EC50 (MCF-10A [3]; mcf-10a): Nd(Toxic)

CCCCCCCCOc1ccc2nc(C)cc(NCc3ccc(F)cc3)c2c1
EC50 (MCF-10A [1]; [4]): 2.2 µM | Ratio EC50 [2]: 1.1 | EC50 (MCF-10A [3]; [4]): 1.8 µM

COc1ccc2nc(C)cc(NCc3ccccc3OC)c2c1
EC50 (MCF-10A [1]; [4]): 29.5 µM | Ratio EC50 [2]: 1.2 | EC50 (MCF-10A [3]; [4]): 25.2 µM

CCCCCCCOc1cc2nc(C)cc(NCc3ccc(F)cc3)c2cc1OC
EC50 (MCF-10A [1]; [4]): 2.2 µM | EC50 (MCF-10A [3]; [4]): 1.7 µM

COc1ccc2nc(C)cc(NCc3c(F)cccc3C(F)(F)F)c2c1
EC50 (MCF-10A [1]; [4]): 14 µM | Ratio EC50 [2]: 1 | EC50 (MCF-10A [3]; [4]): 14.2 µM

COc1ccc2nc(C)cc(NC3CCN(C)CC3)c2c1
EC50 (MCF-10A [1]; [4]): 7.1 µM | Ratio EC50 [2]: 0.9 | EC50 (MCF-10A [3]; [4]): 7.8 µM

COc1ccc2nc(C)cc(Nc3ccccc3)c2c1
EC50 (MCF-10A [1]; [4]): 15.9 µM | Ratio EC50 [2]: 0.9 | EC50 (MCF-10A [3]; [4]): 17.6 µM

COc1ccc2nc(C)cc(NCc3ccc(F)c(C(F)(F)F)c3)c2c1
EC50 (MCF-10A [1]; [4]): 14.3 µM | Ratio EC50 [2]: 1 | EC50 (MCF-10A [3]; [4]): 11.3 µM

COc1ccc2nc(C)cc(NCc3ccncc3)c2c1
EC50 (MCF-10A [1]; [4]): 41.6 µM | Ratio EC50 [2]: 1 | EC50 (MCF-10A [3]; [4]): 40.9 µM

COc1ccc2nc(C)cc(NCc3ccc(F)cc3C(F)(F)F)c2c1
EC50 (MCF-10A [1]; [4]): 4.2 µM | Ratio EC50 [2]: 0.8 | EC50 (MCF-10A [3]; [4]): 5.2 µM

COc1ccc2nc(C)cc(NCc3cccc(N(C)C)c3)c2c1
EC50 (MCF-10A [1]; [4]): 14 µM | Ratio EC50 [2]: 1 | EC50 (MCF-10A [3]; [4]): 14 µM

Cc1cc(NCc2ccc(F)cc2)c2ccccc2n1
EC50 (MCF-10A [1]; [4]): 20.1 µM | Ratio EC50 [2]: 1.3 | EC50 (MCF-10A [3]; [4]): 15.4 µM

COc1ccc2nc(C)cc(NCC[C@@H]3CNC[C@H]3O)c2c1.O=C(O)C(F)(F)F
EC50 (MCF-10A [1]; mcf-10a): Nd(Toxic) | EC50 (MCF-10A [3]; mcf-10a): Nd(Toxic)

COc1ccc2nc(C)cc(NCc3ccc(F)c(OC)c3)c2c1
EC50 (MCF-10A [1]; [4]): 12.9 µM | EC50 (MCF-10A [3]; [4]): 9.5 µM

COc1ccc2nc(C)cc(NCc3cccnc3)c2c1
EC50 (MCF-10A [1]; [4]): 49.3 µM | Ratio EC50 [2]: 1.1 | EC50 (MCF-10A [3]; [4]): 44.8 µM

COc1cc2c(NCc3ccc(F)cc3)cc(-c3ccc(C)o3)nc2cc1OCCCN1CCCC1
EC50 (MCF-10A [1]; [4]): 2.1 µM | Ratio EC50 [2]: 1.1 | EC50 (MCF-10A [3]; [4]): 1.8 µM

COc1ccc2nc(C)cc(NCC3CCCN(C)C3)c2c1 (stereo not given)
EC50 (MCF-10A [1]; [4]): 5.8 µM | EC50 (MCF-10A [3]; [4]): 6.4 µM

COc1ccc2nc(-c3ccc(C)o3)cc(NC3CCN(C)CC3)c2c1
EC50 (MCF-10A [1]; [4]): 0.8 µM | Ratio EC50 [2]: 0.8 | EC50 (MCF-10A [3]; [4]): 1.1 µM

COc1ccc2nc(C)cc(NCc3ccc(F)cc3F)c2c1
EC50 (MCF-10A [1]; [4]): 15 µM | Ratio EC50 [2]: 1.3 | EC50 (MCF-10A [3]; [4]): 11.6 µM

COc1ccc2nc(C)cc(NCc3cccc(CO)c3)c2c1
EC50 (MCF-10A [1]; [4]): 24.7 µM | Ratio EC50 [2]: 1.4 | EC50 (MCF-10A [3]; [4]): 17.1 µM

COc1cc2c(NCc3ccc(F)cc3)cc(C)nc2cc1OCCCN1CCCC1
EC50 (MCF-10A [1]; [4]): 2.1 µM | Ratio EC50 [2]: 1.1 | EC50 (MCF-10A [3]; [4]): 1.9 µM

Cc1cc(NCc2cccc(C#N)c2)c2cc(OCCCN3CCCC3)ccc2n1
EC50 (MCF-10A [1]; [4]): 10.3 µM | Ratio EC50 [2]: 1.2 | EC50 (MCF-10A [3]; [4]): 8.5 µM

COc1ccc(CNc2cc(C)nc3ccc(OC)cc23)cc1
EC50 (MCF-10A [1]; [4]): 9.7 µM | Ratio EC50 [2]: 1.4 | EC50 (MCF-10A [3]; [4]): 7 µM

COc1ccc2nc(C)cc(NCc3ccccc3CO)c2c1
EC50 (MCF-10A [1]; [4]): 25.9 µM | Ratio EC50 [2]: 1.1 | EC50 (MCF-10A [3]; [4]): 22.9 µM

CCCCCCOc1ccc2nc(C)cc(NCc3ccc(F)cc3)c2c1
EC50 (MCF-10A [1]; [4]): 9.1 µM | Ratio EC50 [2]: 1 | EC50 (MCF-10A [3]; [4]): 8.8 µM

COc1ccc2nc(C)cc(NCc3cccc(F)c3)c2c1
EC50 (MCF-10A [1]; [4]): 14.7 µM | Ratio EC50 [2]: 1.3 | EC50 (MCF-10A [3]; [4]): 11.3 µM

Cc1cc(NCc2ccc(F)cc2)c2cc(OCCCCCCN=[N+]=[N-])ccc2n1
EC50 (MCF-10A [1]; [4]): 4 µM | Ratio EC50 [2]: 1 | EC50 (MCF-10A [3]; [4]): 4.1 µM

COc1ccc2nc(C)cc(NCc3ccc(OC)c(F)c3)c2c1
EC50 (MCF-10A [1]; [4]): 10.3 µM | Ratio EC50 [2]: 1.1 | EC50 (MCF-10A [3]; [4]): 9 µM

COc1ccc2nc(C)cc(NCc3ccc(C(F)(F)F)cc3)c2c1
EC50 (MCF-10A [1]; [4]): 7.6 µM | Ratio EC50 [2]: 1.4 | EC50 (MCF-10A [3]; [4]): 7.6 µM

COc1cccc(CNc2cc(C)nc3ccc(OC)cc23)c1
EC50 (MCF-10A [1]; [4]): 12.5 µM | Ratio EC50 [2]: 1.3 | EC50 (MCF-10A [3]; [4]): 9.7 µM

COc1cc2c(NC3CCN(C)CC3)cc(-c3ccc(C)o3)nc2cc1OCCCN1CCCC1
EC50 (MCF-10A [1]; [4]): 0.5 µM | EC50 (MCF-10A [3]; [4]): 0.2 µM

COc1ccc2nc(C)cc(NCc3cccc(OC(F)F)c3)c2c1
EC50 (MCF-10A [1]; [4]): 14.3 µM | Ratio EC50 [2]: 1.3 | EC50 (MCF-10A [3]; [4]): 10.3 µM

COc1ccc2nc(COCCCCCCN=[N+]=[N-])cc(NCc3ccc(F)cc3)c2c1.O=C(O)C(F)(F)F
EC50 (MCF-10A [1]; [4]): 8.9 µM | Ratio EC50 [2]: 1.1 | EC50 (MCF-10A [3]; [4]): 8.4 µM

COc1ccc2nc(C)cc(Nc3ccc(F)cc3)c2c1
EC50 (MCF-10A [1]; [4]): 29.8 µM | Ratio EC50 [2]: 1.1 | EC50 (MCF-10A [3]; [4]): 28 µM

COc1ccc2nc(C)cc(SCc3ccc(F)cc3)c2c1
EC50 (MCF-10A [1]; [4]): 50.5 µM | Ratio EC50 [2]: 1.2 | EC50 (MCF-10A [3]; [4]): 41 µM

COc1ccc2nc(C)cc(NCc3ccc(F)cc3)c2c1
EC50 (MCF-10A [1]; [4]): 12.2 µM | Ratio EC50 [2]: 1.5 | EC50 (MCF-10A [3]; [4]): 8.2 µM

CCCOc1ccc2nc(C)cc(NCc3ccc(F)cc3)c2c1
EC50 (MCF-10A [1]; [4]): 14.3 µM | Ratio EC50 [2]: 1.5 | EC50 (MCF-10A [3]; [4]): 9.8 µM

CCCCCCCOc1cc(OC)cc2c(NCc3ccc(F)cc3)cc(C)nc12
EC50 (MCF-10A [1]; [4]): 3.3 µM | Ratio EC50 [2]: 1.2 | EC50 (MCF-10A [3]; [4]): 2.7 µM

COc1ccc2nc(C)cc(NCc3ccc(C(C)(C)C)cc3)c2c1
EC50 (MCF-10A [1]; [4]): 7 µM | Ratio EC50 [2]: 1 | EC50 (MCF-10A [3]; [4]): 6.9 µM

COc1ccc2nc(C)cc(NCc3cccc(-c4ccccc4)c3)c2c1
EC50 (MCF-10A [1]; [4]): 3.1 µM | Ratio EC50 [2]: 1.1 | EC50 (MCF-10A [3]; [4]): 2.8 µM

COc1ccc2nc(C)cc(NCc3ccccc3)c2c1
EC50 (MCF-10A [1]; [4]): 28.6 µM | Ratio EC50 [2]: 1.1 | EC50 (MCF-10A [3]; [4]): 25.9 µM

COc1ccc2nc(C)cc(NCc3ccc(N(C)C)cc3)c2c1
EC50 (MCF-10A [1]; [4]): 20 µM | Ratio EC50 [2]: 1.3 | EC50 (MCF-10A [3]; [4]): 15.1 µM

COc1ccc2nc(CO)cc(NC3CCN(C)CC3)c2c1
EC50 (MCF-10A [1]; [4]): 30.1 µM | Ratio EC50 [2]: 0.9 | EC50 (MCF-10A [3]; [4]): 32.3 µM

COc1ccc2nc(-c3ccc(C)o3)cc(NCc3ccc(F)cc3)c2c1
EC50 (MCF-10A [1]; [4]): 11.1 µM | Ratio EC50 [2]: 1.4 | EC50 (MCF-10A [3]; [4]): 8.3 µM

COc1cccc(CNc2cc(C)nc3ccc(OCCCN4CCCC4)cc23)c1
EC50 (MCF-10A [1]; [4]): 3.6 µM | Ratio EC50 [2]: 1.2 | EC50 (MCF-10A [3]; [4]): 3.6 µM

CCCCCCCCCCOc1ccc2nc(C)cc(NCc3ccc(F)cc3)c2c1
EC50 (MCF-10A [1]; [4]): 2 µM | Ratio EC50 [2]: 1 | EC50 (MCF-10A [3]; [4]): 1.9 µM

COc1ccc2nc(C)cc(NCc3ccccc3F)c2c1
EC50 (MCF-10A [1]; [4]): 17 µM | Ratio EC50 [2]: 1.2 | EC50 (MCF-10A [3]; [4]): 14 µM

Cc1cc(NC2CCN(C)CC2)c2cc(OCCCN3CCCC3)ccc2n1
EC50 (MCF-10A [1]; [4]): 11.4 µM | Ratio EC50 [2]: 0.9 | EC50 (MCF-10A [3]; [4]): 13.2 µM

From ChEMBL document CHEMBL5055686, “Discovery of AL-GDa62 as a Potential Synthetic Lethal Lead for the Treatment of Gastric Cancer” (J Med Chem, 2021)
